For data set [1], the system named is P. carinii. The data set can be described thus: In vitro anti-P. carinii ATP detection assay. Type of data set: cell-based, Pneumocystis carinii. Conditions: for IC50: Pneumocystis carinii.
Data set [2] concerns sporogonic development of Plasmodium berghei ANKA in Anopheles stephensi. The data set can be described thus: In vivo transmission-blocking activity. The conditions noted are these: single i.p. dose to mice.
In data set [3] the test system is chloroquine-resistant P. falciparum strain W2. As to the kind of experiment: In vitro blood-schizontocidal activity assay. The class given is cell-based, Plasmodium falciparum. Conditions: P. falciparum W2, 48 h incubation.
For data set [4] the test system is unchanged. The conditions noted are these: cited from earlier work; for IC50: read-out: Activity against blood stage forms IC50, ref [28].
In data set [5] the test system is P. carinii. Conditions: 72 h, ref [28], cited from earlier work; for IC50: read-out: Anti-P. carinii activity IC50.
For data set [6], the system named is A549 human adenocarcinoma epithelial lung cells. The data set can be described thus: Cytotoxicity, viability of A549 cells. The class given is cell-based.
[7] abbreviates: 24 h, read-out: Anti-P. carinii activity IC50, 24 h.
The mark [8] stands for this setting: 48 h, read-out: Anti-P. carinii activity IC50, 48 h.
Where [9] appears, read: 72 h, read-out: Anti-P. carinii activity IC50, 72 h.

The text below walks through data of paper PMC2788672 (Journal of medicinal chemistry, 2009).

In brackets after ≈: the same amount, converted by molar mass. Entries after “also recorded” stand apart in the source; their conditions may differ. Like-named read-outs stand apart in the source and are kept apart here.

With `COc1cc(NC(C)CCCN2C(=O)CN(C(=O)[C@H](N)CCSC)C2(C)C)c2ncccc2c1` (stereo partly shown) [Compound 5f], the IC50 is 11.6 µg/mL (≈ 23.8 µM) with P. carinii [1] (setting [7]), 6.4 µg/mL (≈ 13.1 µM) with P. carinii [1] (setting [8]) and 3.4 µg/mL (≈ 6.97 µM) in the data set on P. carinii [1] (setting [9]). Also, the “Mean no. of oocysts per mosquito±SEM” value is 1.2 ±0.4 in data set [2] (dose 10 µmol/kg) and 3.8 ±1.4 in data set [2] (dose 50 µmol/kg).

Consider `COc1cc(NC(C)CCCN2C(=O)CN(C(=O)[C@@H](C)N)C2(C)C)c2ncccc2c1` (stereo partly shown) [Compound 5b], for which the IC50 in the data set on P. carinii [1] (setting [7]) was 16.9 µg/mL (≈ 39.5 µM); in the data set on P. carinii [1] (setting [8]), 8 µg/mL (≈ 18.7 µM); in the data set with P. carinii [1] (setting [9]) it was 3.6 µg/mL (≈ 8.42 µM). Also, in data set [2] (dose 50 µmol/kg), the “Mean no. of oocysts per mosquito±SEM” value is given as 1.3 ±0.3.

For the molecule `COc1cc(NC(C)CCCN2C(=O)CN(C(=O)[C@H](N)C(C)C)C2(C)C)c2ncccc2c1` (stereo partly shown) [Compound 5c], the figures for the IC50 with P. carinii [1] (setting [7]), in the data set with P. carinii [1] (setting [8]) and in the data set on P. carinii [1] (setting [9]) were 24.7 µg/mL (≈ 54.2 µM), 9.2 µg/mL (≈ 20.2 µM) and 6.2 µg/mL (≈ 13.6 µM), respectively.

In the case of `COc1cc(NC(C)CCCN2C(=O)CN(C(=O)[C@H](N)CC(C)C)C2(C)C)c2ncccc2c1` (stereo partly shown) [Compound 5d], the IC50 with P. carinii [1] (setting [7]) came out at 14.6 µg/mL (≈ 31.1 µM); with P. carinii [1] (setting [8]), 8.4 µg/mL (≈ 17.9 µM); in the data set with P. carinii [1] (setting [9]) it was 5.1 µg/mL (≈ 10.9 µM).

Turning to `COc1cc(NC(C)CCCN2C(=O)CN(C(C)=O)C2(C)C)c2ncccc2c1` (stereo not shown) [Compound 6], the “Activity against blood stage forms IC50” value in data set [3] is “complete loss of activity; also recorded: devoid of blood-schizontocidal activity”. Moreover, in the data set on P. carinii [1] (24 h), the “Anti-P. carinii activity (activity scale)” value is “Inactive”. The IC50 in the data set on P. carinii [1] (setting [8]) was determined as 40.5 µg/mL (≈ 102 µM); with P. carinii [1] (setting [9]) it was 14.6 µg/mL (≈ 36.6 µM).

On to `CC[C@H](C)[C@@H](N)C(=O)N1CC(=O)N(CCCC(C)Nc2cc(OC)cc3cccnc23)C1(C)C` (stereo partly shown) [Compound 5e, 1-isoleucyl-3-(4-(6-methoxyquinolin-8-ylamino)pentyl)-2,2-dimethylimidazolidin-4-one], for which the IC50 in the data set with P. carinii [1] (setting [7]) stood at 12.9 µg/mL (≈ 27.5 µM); with P. carinii [1] (setting [8]) it was 7.5 µg/mL (≈ 16 µM); with P. carinii [1] (setting [9]), 4.6 µg/mL (≈ 9.79 µM). Moreover, the “Mean no. of oocysts per mosquito±SEM” value in data set [2] (dose 10 µmol/kg) came to 4.9 ±0.6; in data set [2] (dose 50 µmol/kg), 1.5 ±0.5.

Regarding `COc1cc(N(C(C)=O)C(C)CCCN2C(=O)CN(C(C)=O)C2(C)C)c2ncccc2c1` (stereo not shown) [Compound 7], the “Activity against blood stage forms IC50” value in data set [3] is given as “devoid of blood-schizontocidal activity”. Also, the “Anti-P. carinii activity (activity scale)” value in the data set with P. carinii [1] (24 h), with P. carinii [1] (48 h) and in the data set with P. carinii [1] (72 h) was “Inactive” in each case.

Regarding `COc1cc(NC(C)CCCN2C(=O)[C@@H](C)NC2(C)C)c2ncccc2c1` (stereo partly shown) [Compound 4b], the IC50 in data set [4] was > 50 µM. Further, in data set [4] (ref [28]), the “Activity against blood stage forms IC50” value is reported as “complete loss of activity”. Moreover, in the data set with P. carinii [5], the “Anti-P. carinii activity IC50” value was 83.7 µg/mL and the IC50 is 226 µM.

In the case of `COc1cc(NC(C)CCCN)c2ncccc2c1` (stereo not shown) [Compound 1, primaquine, reference compound], the IC50 is 4.7 µg/mL (≈ 18.1 µM) in the data set with P. carinii [1] (24 h, read-out: Anti-P. carinii activity IC50); 2.2 µg/mL (≈ 8.48 µM) with P. carinii [1] (48 h, read-out: Anti-P. carinii activity IC50); 0.9 µg/mL (≈ 3.47 µM) in the data set with P. carinii [1] (72 h, read-out: Anti-P. carinii activity IC50). Also, the “Mean no. of oocysts per mosquito±SEM” value was found to be 3.5 ±1.2 in data set [2] (dose 10 µmol/kg) and 0.2 ±0.2 in data set [2] (dose 50 µmol/kg).

Consider `COc1cc(NC(C)CCCN2C(=O)CNC2(C)C)c2ncccc2c1` (stereo not shown) [Compound 4a], for which, in data set [4], the IC50 is 9.1 µM. For the same molecule, in the data set on P. carinii [5], the “Anti-P. carinii activity IC50” value is recorded as 8.3 µg/mL and the IC50 was 23 µM.

As for `COc1cc(NC(C)CCCN2C(=O)CN(C(=O)[C@H](N)Cc3ccccc3)C2(C)C)c2ncccc2c1` (stereo partly shown) [Compound 5g], the results for the IC50 in the data set with P. carinii [1] (setting [7]), in the data set on P. carinii [1] (setting [8]) and with P. carinii [1] (setting [9]) were 12.1 µg/mL (≈ 24 µM), 9.3 µg/mL (≈ 18.5 µM) and 5.1 µg/mL (≈ 10.1 µM), respectively. Moreover, the “Mean no. of oocysts per mosquito±SEM” value in data set [2] (dose 10 µmol/kg) amounted to 3.7 ±1.2; in data set [2] (dose 50 µmol/kg) it was 2.2 ±0.8.

With `COc1cc(NC(C)CCCN2C(=O)[C@@H](C)N(C(=O)CN)C2(C)C)c2ncccc2c1` (stereo partly shown) [Compound 5h], in the data set on P. carinii [1] (24 h), the “Anti-P. carinii activity (activity scale)” value is reported as “Inactive”. The half-maximal inhibitory concentration (IC50) turned out to be 32.2 µg/mL (≈ 75.3 µM) in the data set with P. carinii [1] (setting [8]) and 22.3 µg/mL (≈ 52.2 µM) in the data set on P. carinii [1] (setting [9]). Further, in data set [6], the “Cytotoxicity (A549 cells) IC50 at 72 h” value is listed as “no toxicity”. For the same molecule, the “Mean no. of oocysts per mosquito±SEM” value in data set [2] (dose 10 µmol/kg) stood at 3.3 ±1.1; in data set [2] (dose 50 µmol/kg), 1.8 ±0.5.

For the molecule `COc1cc(NC(C)CCCN2C(=O)CN(C(=O)CN)C2(C)C)c2ncccc2c1` (stereo not shown) [Compound 5a], the IC50 with P. carinii [1] (setting [7]) came out at 18.1 µg/mL (≈ 43.8 µM); with P. carinii [1] (setting [8]), 15.5 µg/mL (≈ 37.5 µM); in the data set on P. carinii [1] (setting [9]) it was 11.6 µg/mL (≈ 28.1 µM). Moreover, the “Cytotoxicity (A549 cells) IC50 at 72 h” value in data set [6] is reported as “no toxicity”.

Usually IC50 stands for the concentration needed to halve the response being measured.
